Among the test systems are SF-539 CNS; IGROV1 ovarian; NCI-H23 lung; HT29 colon; RPMI-8226 leukemia; LOX IMVI melanoma; TK-10 renal; MDA-MB-231 breast; HOP-92 NSCLC; SN12C renal.
Common to all, as to test: DTP human tumour cell line panel, 48 h

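Five compound concentrations were applied to cells in 96-well plates for 48 hours; endpoints were derived by simple linear interpolation of the resulting dose-response curve. At the GI50, growth is halved. TGI: total growth inhibition.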 Bounds are passed on as bounds.

As for `COc1ccccc1/C=C\C(=O)c1ccccc1`, the GI50 – broadly, the concentration at which growth is held to half of that of the control – in the assay with SF-539 CNS was 13.8 µM; with IGROV1 ovarian it was 5.14 µM; in the assay on NCI-H23 lung it was 13.5 µM; with HT29 colon it was 3.9 µM; in the assay on RPMI-8226 leukemia, 2800 nM; in the assay with LOX IMVI melanoma it was 2930 nM. Further, the GI50 in the assay on TK-10 renal is 12.5 µM; in the assay on MDA-MB-231 breast it was 12.5 µM; in the assay with HOP-92 NSCLC it was 11.9 µM; in the assay with SN12C renal, 9.36 µM. The TGI (usually the concentration giving total growth inhibition) in the assay with SF-539 CNS came to 26.7 µM; in the assay on IGROV1 ovarian it was 18.1 µM; with NCI-H23 lung, 29.4 µM; in the assay with HT29 colon, 17.3 µM; in the assay on RPMI-8226 leukemia, 24.7 µM; with LOX IMVI melanoma, 8.79 µM. For the same compound, the TGI in the assay on TK-10 renal came to 25.2 µM; in the assay with MDA-MB-231 breast, 30 µM; in the assay with HOP-92 NSCLC, 31.5 µM; in the assay with SN12C renal, 22.1 µM.

For `COc1cc([C@H]2c3[nH]c4ccccc4c3C[C@H]3COC(=O)N32)cc(OC)c1O`, the TGI in the assay on SF-539 CNS was 2.86 µM; in the assay on IGROV1 ovarian, over 86.3 µM; with NCI-H23 lung, 17.1 µM; in the assay on HT29 colon, 25.3 µM; in the assay with RPMI-8226 leukemia, 11.1 µM; in the assay on LOX IMVI melanoma it was 20.8 µM. The TGI in the assay on TK-10 renal is 27 µM; with MDA-MB-231 breast, 49.8 µM; in the assay on HOP-92 NSCLC it was over 88 µM; in the assay on SN12C renal, 59.7 µM.

`Cc1cc(=O)oc2cc(OCCn3c(C)nn(-c4ccc(Cl)cc4)c3=O)ccc12`: the GI50 was 4.06 µM with SF-539 CNS; 35 µM with IGROV1 ovarian; 2.83 µM in the assay on NCI-H23 lung; 3.82 µM with HT29 colon; 11000 nM with RPMI-8226 leukemia; 4830 nM in the assay with LOX IMVI melanoma. The GI50 in the assay with TK-10 renal is 13.4 µM; in the assay with MDA-MB-231 breast, 4.53 µM; in the assay on HOP-92 NSCLC, 16.1 µM; in the assay on SN12C renal, 5.54 µM. Also, the TGI in the assay on SF-539 CNS is 47.3 µM; in the assay on IGROV1 ovarian, over 100 µM; with NCI-H23 lung it was over 100 µM; in the assay with HT29 colon it was over 100 µM; with RPMI-8226 leukemia, over 100 µM; in the assay on LOX IMVI melanoma, over 100 µM. Moreover, the TGI in the assay on TK-10 renal is 88.4 µM; in the assay on MDA-MB-231 breast, over 100 µM; in the assay with HOP-92 NSCLC, over 100 µM; in the assay with SN12C renal, over 100 µM.

In the case of `O=C(Cc1ccc(/C=C/C(=O)c2ncc[nH]2)cc1)Nc1ccc(C(F)(F)F)cc1`, the GI50 in the assay on SF-539 CNS is 4.52 µM; in the assay on IGROV1 ovarian, 3.84 µM; in the assay with NCI-H23 lung, 3.42 µM; in the assay on HT29 colon, 1.09 µM; with RPMI-8226 leukemia it was 780 nM; in the assay with LOX IMVI melanoma, 469 nM. Moreover, the GI50 is 6.63 µM in the assay on TK-10 renal, 2.79 µM with MDA-MB-231 breast, 4.89 µM in the assay on HOP-92 NSCLC and 1.87 µM with SN12C renal. Moreover, the TGI in the assay with SF-539 CNS was determined as 9.25 µM; in the assay with IGROV1 ovarian it was 15.9 µM; in the assay with NCI-H23 lung it was 9.26 µM; in the assay with HT29 colon it was 4.47 µM; in the assay on RPMI-8226 leukemia it was 1.83 µM; in the assay on LOX IMVI melanoma it was 1.02 µM. Also, the TGI in the assay with TK-10 renal was determined as 13.8 µM; in the assay with MDA-MB-231 breast, 8.55 µM; with HOP-92 NSCLC, 11.1 µM; in the assay with SN12C renal it was 8.02 µM.

For the compound `O=C(CCN1CCCC1)Nc1ccc2c(Nc3ccccc3)c3ccccc3nc2c1`, the GI50 in the assay with SF-539 CNS was 1.14 µM; in the assay with IGROV1 ovarian, 0.474 µM; in the assay with NCI-H23 lung, 0.383 µM; in the assay on HT29 colon, 0.521 µM; in the assay on RPMI-8226 leukemia it was 480 nM; in the assay on LOX IMVI melanoma it was 398 nM. Also, the GI50 is 1.28 µM with TK-10 renal, 1.41 µM in the assay on MDA-MB-231 breast, 0.432 µM in the assay on HOP-92 NSCLC and 0.306 µM in the assay with SN12C renal. Moreover, the TGI is 2.44 µM in the assay on SF-539 CNS; 3.02 µM in the assay with IGROV1 ovarian; 2 µM in the assay with NCI-H23 lung; 3.14 µM in the assay on HT29 colon; 1.65 µM in the assay on RPMI-8226 leukemia; 1.93 µM in the assay with LOX IMVI melanoma. Also, the TGI in the assay on TK-10 renal was 3.78 µM; with MDA-MB-231 breast, 3.45 µM; in the assay on HOP-92 NSCLC it was 2.26 µM; in the assay with SN12C renal, 1.81 µM.

Turning to `COc1ccc(/C=C(/C(=O)n2cnnn2)c2cc(OC)c(OC)c(OC)c2)cc1`, the GI50 with SF-539 CNS was 3.2 µM; in the assay with IGROV1 ovarian, 4.69 µM; in the assay on NCI-H23 lung, 5.54 µM; in the assay on HT29 colon it was 3.42 µM; with RPMI-8226 leukemia, 3680 nM; with LOX IMVI melanoma, 3820 nM. Besides, the GI50 is 7.59 µM in the assay with TK-10 renal, 4.7 µM in the assay on MDA-MB-231 breast, 6.71 µM in the assay with HOP-92 NSCLC and 5.15 µM in the assay on SN12C renal. The TGI in the assay on SF-539 CNS is 19.9 µM; with IGROV1 ovarian, over 100 µM; in the assay with NCI-H23 lung, over 100 µM; with HT29 colon, over 100 µM; with RPMI-8226 leukemia, over 100 µM; with LOX IMVI melanoma, over 100 µM. Further, the TGI with TK-10 renal, in the assay on MDA-MB-231 breast, with HOP-92 NSCLC and in the assay on SN12C renal was over 100 µM in each case.

For the compound `NC(=O)c1cc(I)ccc1NC(=O)COc1ccccc1`, the GI50 is 0.29 µM in the assay on SF-539 CNS; 2.34 µM in the assay on IGROV1 ovarian; 0.822 µM with NCI-H23 lung; 0.367 µM in the assay with HT29 colon; 679 nM in the assay on RPMI-8226 leukemia; 1010 nM in the assay with LOX IMVI melanoma. The GI50 in the assay with TK-10 renal is 5.38 µM; in the assay on MDA-MB-231 breast it was 1.32 µM; with HOP-92 NSCLC, 2.98 µM; in the assay with SN12C renal, 2.3 µM. For the same compound, the TGI in the assay with SF-539 CNS was 1.58 µM; in the assay on IGROV1 ovarian, over 100 µM; in the assay on NCI-H23 lung it was 22.4 µM; with HT29 colon, over 100 µM; in the assay on RPMI-8226 leukemia, over 100 µM; with LOX IMVI melanoma, over 100 µM. For the same compound, the TGI in the assay on TK-10 renal is 50.9 µM; in the assay on MDA-MB-231 breast, 26.6 µM; with HOP-92 NSCLC, 21.4 µM; with SN12C renal it was over 100 µM.

Turning to `COc1cc2cc(Oc3ccc(NC(=O)c4cccc5c4OCCO5)cc3)c(C)nc2cc1OC`, the GI50 in the assay with SF-539 CNS was 9.09 µM; with IGROV1 ovarian, 64.5 µM; in the assay with NCI-H23 lung, 8.14 µM; in the assay with HT29 colon it was 6.12 µM; with RPMI-8226 leukemia, 2980 nM; in the assay on LOX IMVI melanoma it was 9280 nM. The GI50 is 15.7 µM in the assay with TK-10 renal, 6.06 µM in the assay with MDA-MB-231 breast, 3.93 µM in the assay with HOP-92 NSCLC and 8.4 µM with SN12C renal. Further, the TGI in the assay with SF-539 CNS, in the assay on IGROV1 ovarian, in the assay on NCI-H23 lung, in the assay on HT29 colon, with RPMI-8226 leukemia and in the assay with LOX IMVI melanoma was over 100 µM in each case. For the same compound, the TGI was over 100 µM in the assay with TK-10 renal, over 100 µM in the assay on MDA-MB-231 breast, 30.6 µM with HOP-92 NSCLC and over 100 µM in the assay with SN12C renal.

Values taken from PubChem BioAssay (NCI).
